Measured values taken from patent US12624031B2, “Inhibitors of ubiquitin specific peptidase 22 (USP22) and uses thereof for treating diseases and disorders” (Northwestern University, priority 2022, dated 2026).
Each block holds one compound with its values, some of them ahead of it.

What was measured:
[1] = molecular target: human GST-USP22 with Sgf11, Sgf73 1-105 and Sus1 (Homo sapiens, UniProt Q9UPT9); assay: in vitro USP22 deubiquitination assay (re-constructed deubiquitination module); format: biochemical; conditions: for IC50: customized deubiquitination assay, human GST-USP22 with Sgf11, Sgf73 1-105, Sus1, read-out: IC50 in suppressing USP22 in vitro catalytic activity
Method: (A) The chemical structure of S02-S106 11-((4-cyanophenyl)amino)-7,8,9,10-tetrahydrobenzo(4,5)imidazole[1,2-b]isoquinoline-6-carbonitrile, (B & C) The efficacy of USP22i-S02 analogs in inhibiting USP22 catalytic activity was determined in vitro. The representative data from a triplicate analysis of S02-S106 with S02 as a control are shown (B). The IC50 of USP22i-S02 analogs in suppressing USP22 in vitro catalytic activity are shown (C). NA, not available.
We purchased human recombinant Sgf11 and Sgf73 1-105 and Sus1 proteins from R&D Systems Inc, and re-constructed the deubiquitination activity with our human GST-USP22. The USP22 customized deubiquitination was optimized and used for in vitro screening the activity of synthetic USP22i-s02 analogs with the USP22i-s02 as a control (FIG. 12).

[2] = system: PD-L1 expression in A549 cells; assay: PD-L1 expression in A549 cells by flow cytometry; format: cell-based, human
Method: FIG. 13: The effects of USP22i-S02-S106 on suppression of PD-L1 expression on human lung adenocarcinoma cells. Human […] lung adenocarcinoma A549 cells were treated with S02-S106 or its lead compound S02 for 48 hours. The expression levels of PD-L1 were determined by flow cytometry. (A) Representative flow data from A549 cells treated with 2 μM S02-S106 or with 15 μM S02 are shown. DMSO treated cells were used as an untreated control and USP22 CRISPR knockout A549 cells were used as a positive control. (B) The dose-dependent inhibition of PD-L1 expression in A549 cells by S02-S106 with USP22i-S02 as a control. Data were normalized with PD-L1 expression levels in USP22-KO cells as 100% of USP22 inhibition as shown in A. (C) Inhibition of PD-L1 expression in WT and USP22-null A549 cells by S02-S106.
We then used PD-L1 expression level as a measurement to evaluate the inhibitory efficacy of USP22 by S02-S106.
To determine the specificity of USP22i-S02-S106, we treated the WT and USP22-null lung cancer cells.

[3] = system: polarized CD4+ T-regulatory cells; assay: cytotoxicity in polarized CD4+ T-regulatory cells; format: cell-based, murine; conditions: for cytotoxicity to Tregs: 156 ng/mL to 5 ug/mL, compared to DMSO controls; for toxicity: Example 5, no concentration given
Method: FIG. 2: Cytotoxicity of compounds from 156 ng/mL to 5 ug/mL concentration range in polarized CD4+ T-regulatory cells. Murine CD4+ T-cells were isolated and polarized in vitro to T-regulatory cells using 5 ng/mL IL-2, 2 μg/mL anti-IL-4, 2 μg/mL anti-IFNγ, and 1 ng/mL TGFβ. After 48 hours, the inhibitors were added to the cells.
We then synthesized all 17 compounds and validated their cytotoxicity to regulatory T cells. To this end, mouse CD4 T cells were polarized to FoxP3 Tregs for two days, followed by treatment of the cells with each of the compounds at the doses upto 5 ug/ml. […] In addition, the rest of the compounds had poor solubility in DMSO, and were not further tested.

[4] = system: FoxP3 expression in CD4+ natural T-regulatory cells; assay: FoxP3 expression in natural T-regulatory cells by flow cytometry; format: cell-based, murine
Method: FIGS. 3 and 4: Change in FoxP3 expression in murine CD4+ natural T-regulatory cells. Murine lymphocytes were isolated from the spleens and lymph nodes and cultured with varying concentrations of inhibitor (0.25 μg/mL to 2 μg/mL) or DMSO, anti-CD3, anti-CD28, TGFβ, and IL-2. After two days, lymphocytes were analyzed by flow cytometry for FoxP3 expression in natural T-regulatory (nTregs) gated on CD3+CD4+CD25+FoxP3+. (FIG. 3) Representative histograms of FITC::FoxP3 MFI in nTregs cultured with inhibitors at a concentration of 2 μg/mL. (FIG. 4) Representative plot of FITC::FoxP3 geometric MFI in nTregs across different concentrations of inhibitor.
We then analyzed whether treatment of Tregs with the compounds S106, 107 and 110 inhibits USP22 activity in Tregs as measured by FoxP3 expression levels by flow cytometry.

Sequence of human GST-USP22 with Sgf11, Sgf73 1-105 and Sus1 (Q9UPT9 whole entry): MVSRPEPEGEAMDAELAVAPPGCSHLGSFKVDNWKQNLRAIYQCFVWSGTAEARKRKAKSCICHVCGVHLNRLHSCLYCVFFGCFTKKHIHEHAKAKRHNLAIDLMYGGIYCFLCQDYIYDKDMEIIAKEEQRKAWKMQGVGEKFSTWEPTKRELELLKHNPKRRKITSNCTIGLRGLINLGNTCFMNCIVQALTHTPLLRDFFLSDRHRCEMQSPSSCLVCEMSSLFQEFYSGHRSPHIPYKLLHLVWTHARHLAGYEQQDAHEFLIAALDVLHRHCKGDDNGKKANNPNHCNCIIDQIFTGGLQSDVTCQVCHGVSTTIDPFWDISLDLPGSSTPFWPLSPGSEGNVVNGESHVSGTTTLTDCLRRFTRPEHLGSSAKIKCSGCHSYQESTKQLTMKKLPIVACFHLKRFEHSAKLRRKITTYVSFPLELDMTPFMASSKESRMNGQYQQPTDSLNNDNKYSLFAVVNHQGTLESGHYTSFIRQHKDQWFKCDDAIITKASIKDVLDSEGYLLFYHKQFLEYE
Sequence of human GST-USP22 with Sgf11, Sgf73 1-105 and Sus1 (Q14CW9 whole entry partner): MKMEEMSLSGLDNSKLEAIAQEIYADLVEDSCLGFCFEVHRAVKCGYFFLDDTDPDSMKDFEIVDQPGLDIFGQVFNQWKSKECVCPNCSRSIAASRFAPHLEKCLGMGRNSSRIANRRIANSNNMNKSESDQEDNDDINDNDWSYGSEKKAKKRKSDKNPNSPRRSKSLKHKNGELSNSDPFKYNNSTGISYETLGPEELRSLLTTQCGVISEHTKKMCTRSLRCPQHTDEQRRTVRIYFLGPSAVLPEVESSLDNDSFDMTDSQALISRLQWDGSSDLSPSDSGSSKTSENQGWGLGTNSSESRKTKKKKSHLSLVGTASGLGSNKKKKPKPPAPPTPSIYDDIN
Sequence of human GST-USP22 with Sgf11, Sgf73 1-105 and Sus1 (O15265 1-105 partner limits assumed): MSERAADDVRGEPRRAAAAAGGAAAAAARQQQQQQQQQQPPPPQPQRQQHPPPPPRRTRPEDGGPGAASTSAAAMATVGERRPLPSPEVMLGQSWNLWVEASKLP
Sequence of human GST-USP22 with Sgf11, Sgf73 1-105 and Sus1 (Q9NPA8 whole entry partner): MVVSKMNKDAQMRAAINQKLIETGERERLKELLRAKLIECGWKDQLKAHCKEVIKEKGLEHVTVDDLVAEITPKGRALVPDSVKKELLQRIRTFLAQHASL

- IC50 [1]: 600 nM
- improvement of USP22i-S02 inhibitory activity ([1]; cyano group at R1 position of E ring, versus USP22i-S02): at least 8 folds
- USP22 inhibitory activity relative to USP22i-S02 ([1]; in vitro deubiquitination assay): most potent USP22 inhibitory activity
- improvement of inhibitory efficacy ([1]; versus S02, in vitro and cell-based studies collectively): 4-8 folds
- IC50 ([2]; Homo sapiens, A549 cells, 48 hours, read-out: IC50 inhibition of PD-L1 expression): ~3200 nM
Compound: N#Cc1ccc(Nc2c3c(c(C#N)c4nc5ccccc5n24)CCCC3)cc1 [Compound S02-S106, 11-((4-cyanophenyl)amino)-7,8,9,10-tetrahydrobenzo(4,5)imidazole[1,2-b]isoquinoline-6-carbonitrile]
- efficacy in suppressing PD-L1 expression ([2]; A549 cells, S02-S106 at 2 μM versus S02 at 15 μM): better efficacy than S02 at 15 μM
- PD-L1 expression in USP22-null A549 cells ([2]; USP22-null A549 cells): did not further reduce PD-L1 expression
- PD-L1 expression in WT A549 cells ([2]; WT A549 cells): dramatically inhibited PD-L1 expression to a level comparable to that of USP22-null A549 cells
- cytotoxicity to Tregs [3]: least cytotoxicity
- toxicity [3]: without increasing its toxicity
- toxicity ([3]; listed as USP22i-S02-S106): without increasing the cytotoxicity
- decrease of FoxP3 expression in nTregs ([4]; 2 μg/mL, two days): higher efficacy compared to usp22i-s02
- FoxP3 expression levels in Tregs ([4]; concentration of 1-2 ug): dose dependently reduced

- IC50 [1]: 300 nM
Compound: N#Cc1c2c(c(Nc3ccc(CN)cc3)n3c1nc1ccccc13)CCCC2 [Compound S02-S113, (11-((4-aminomethyl)phenyl)amino)-7,8,9,10-tetrahydrobenzo(4,5)imidazole[1,2-b]isoquinoline-6-carbonitrile]
- cytotoxicity to Tregs [3]: modest toxicity
- toxicity [3]: highly toxic

Compound: N,5-dimethyl-5H-indolo[2,3-b]quinolin-11-amine compound with anisole [Compound S202]
- cytotoxicity to Tregs [3]: extremely toxic

Compound: Cn1c2nc3ccccc3c-2c(Nc2ccccc2)c2ccccc21 [Compound S201, N5-methyl-N-phenyl-5H-indolo[2,3-b]quinolin-11-amine]
- cytotoxicity to Tregs [3]: extremely toxic
